Laboratory results from patent US20240343761A1, “APELINERGIC MACROCYCLES AND USES THEREOF” (priority 2021, published 2024).
Bridge positions count the residues as written; N and C are the ends. Square brackets hold non-standard residues; d marks the D form. Peptide text beside a SMILES is read from it. dAllylGly = C=CC[C@@H](N)C(=O)O; AllylGly = C=CC[C@H](N)C(=O)O; pGlu = O=C1CC[C@@H](C(=O)O)N1; Nle = CCCC[C@H](N)C(=O)O

What follows are molecules tested against T1, hAPJ receptor (Homo sapiens, UniProt P35414) (assay: BRET-based Gαi1 activation assay in HEK293 cells). Conditions: not given.
T1 construct: expressed in transfected cells; host or cells: HEK293, transient transfection with PEI
T1 sequence (P35414 1-380): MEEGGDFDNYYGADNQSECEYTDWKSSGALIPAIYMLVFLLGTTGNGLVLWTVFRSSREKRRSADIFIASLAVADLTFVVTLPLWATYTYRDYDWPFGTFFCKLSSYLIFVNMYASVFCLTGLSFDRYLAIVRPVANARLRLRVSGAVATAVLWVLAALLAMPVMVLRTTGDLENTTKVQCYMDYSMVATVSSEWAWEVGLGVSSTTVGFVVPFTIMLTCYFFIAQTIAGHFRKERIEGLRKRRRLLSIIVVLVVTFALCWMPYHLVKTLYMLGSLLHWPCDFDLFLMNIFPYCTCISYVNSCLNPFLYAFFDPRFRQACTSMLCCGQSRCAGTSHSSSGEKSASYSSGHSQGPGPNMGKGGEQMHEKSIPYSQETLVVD
Assay type: cell-based
Description: (§1) HEK293 cells were cultivated in high glucose DMEM medium having 10% FBS, 100 U/mL penicillin/streptomycin, 2 mM glutamine, and 20 mM HEPES at 37° C. in T175 flasks under humidified chamber at 5% CO2. […] Cells were then washed with phosphate-buffered saline (PBS) and 90 μL Hanks' balanced salt solution was added in each well. Then, cells were stimulated with analogs at concentrations ranging from 10^−5 M to 10^−11 M for 5 min at 37° C. (Gαi1) or for 30 min at room temperature (β-arrestin2). After stimulation, 5 μM of coelanterazine 400A was added to each well and the plate was read using the BRET^2 filter set of a GeniosPro plate reader (Tecan, Austria). The BRET ratio was determined as GFP10em/RlucIIem. Data were plotted and EC50 values were determined using GraphPad Prism 8. Each data point represents the mean±SEM of at least three different experiments each done in triplicate.

In the case of `CC(C)C[C@@H]1NC(=O)[C@@H]2CCCN2C(=O)[C@@H](NC(=O)[C@H](CO)NC(=O)[C@H](CCCNC(=N)N)NC(=O)[C@H](CCCNC(=N)N)NC(=O)[C@@H]2CCC(=O)N2)CCC(=O)NCCCC[C@@H](C(=O)N[C@@H](CCCNC(=N)N)C(=O)N[C@H](C(=O)N2CCC[C@H]2C(=O)N[C@@H](Cc2ccccc2)C(=O)N2C[C@H](OCc3ccccc3)C[C@H]2C(=O)O)C(C)C)NC(=O)[C@H](Cc2c[nH]cn2)NC1=O` [Compound 93, Pyr-R-R-S-[E-P-L-H-K]-R-V-P-F-Hyp(OBn)], the EC50 is reported as 47 ± 3 nM.

The molecules below were run against T1, hAPJ receptor (assay: BRET-based β-arrestin2 recruitment assay in HEK293 cells). Conditions: not given.
Assay type: cell-based
Description: as §1

`CC(C)C[C@@H]1NC(=O)[C@@H]2CCCN2C(=O)[C@@H](NC(=O)[C@H](CO)NC(=O)[C@H](CCCNC(=N)N)NC(=O)[C@H](CCCNC(=N)N)NC(=O)[C@@H]2CCC(=O)N2)CCC(=O)NCCCC[C@@H](C(=O)N[C@@H](CCCNC(=N)N)C(=O)N[C@H](C(=O)N2CCC[C@H]2C(=O)N[C@@H](Cc2ccccc2)C(=O)N2C[C@H](OCc3ccccc3)C[C@H]2C(=O)O)C(C)C)NC(=O)[C@H](Cc2c[nH]cn2)NC1=O` [Compound 93, Pyr-R-R-S-[E-P-L-H-K]-R-V-P-F-Hyp(OBn)] gave an EC50 of 2200 ± 132 nM.

What follows are molecules tested against T2, human APJ (hAPJ) (Homo sapiens, UniProt P35414) (assay: Competitive radioligand binding ([125I][Nle75,Tyr77][Pyr1]-Ape13) on membranes of HEK293 cells stably expressing human APJ). Conditions: not given.
T2 construct: expressed in transfected cells; cell membranes
T2 sequence (P35414 1-380): T1 sequence (P35414 1-380)
Description: HEK293 cells stably expressing YFP-tagged human APJ were cultured in DMEM medium supplemented with 10% FBS, at 37° C. under a humid atmosphere maintaining 5% CO2. Antibiotic G418 (400 μg/mL) was added to maintain a selection pressure for APJ-expressing cells while penicillin/streptomycin (0.1%) were used to prevent bacterial contamination.
Binding experiments were performed on cell membranes of HEK293 stably expressing the YFP-tagged human APJ receptor. Cells were frozen at −80° C. for storage and quickly thawed right before the experiments (1 min at 37° C.). […] The precipitate (cell membranes) was suspended in binding buffer (50 mM Tris-HCl, 0.2% BSA, pH 7.4). Binding assays were run in 96-well plates. […] (820 Ci/mmol)^3 and test ligand with a range of concentrations from 10^−1 to 10^−11 M in a total volume of 200 μL for 1 h at room temperature.
The incubation mixtures were filtered through a glass fiber filter (Millipore, pre-absorbed of PEI 0.5% for 2 h at 4° C.) to remove unbound ligands, and the filter membranes were washed three times with 170 μL cold binding buffer (4° C.). The γ emission was measured using a 1470 Wizard γ-counter from PerkinElmer (Waltham, USA) (80% efficiency).

First: CCCC[C@@H]1NC(=O)[C@@H]2CCCN2C(=O)[C@H](NC(=O)[C@H](CCCCN)NC(=O)[C@H](Cc2c[nH]cn2)NC(=O)[C@H](CO)NC(=O)[C@H](CC(C)C)NC(=O)[C@H](CCCNC(=N)N)NC(=O)[C@@H]2CCCN2C(=O)[C@H](CCCNC(=N)N)NC(=O)[C@@H]2CCC(=O)N2)CC=CC[C@@H](C(=O)O)NC(=O)[C@@H]2CCCN2C1=O [Compound 9, Pyr-R-P-R-L-S-H-K-[dX-P-Nle-P-X]] ([pGlu]RPRLSHK[dAllylGly]P[Nle]P[AllylGly]-OH; staple 9-13)
Second: CCCC[C@@H]1NC(=O)[C@@H]2CCCN2C(=O)[C@@H](NC(=O)[C@H](CCCCN)NC(=O)[C@H](Cc2c[nH]cn2)NC(=O)[C@H](CO)NC(=O)[C@H](CC(C)C)NC(=O)[C@H](CCCNC(=N)N)NC(=O)[C@@H]2CCCN2C(=O)[C@H](CCCNC(=N)N)NC(=O)[C@@H]2CCC(=O)N2)CC=CC[C@H](C(=O)O)NC(=O)[C@@H]2CCCN2C1=O [Compound 10, Pyr-R-P-R-L-S-H-K-[X-P-Nle-P-dX]] ([pGlu]RPRLSHK[AllylGly]P[Nle]P[dAllylGly]-OH; staple 9-13)
The Ki of the first is 3.6-fold lower: 52 ± 15 nM for the first, 187 ± 20 nM for the second. The first binds more tightly here.

Same assay, conditions: Ki (APJ affinity)

For `CCCC[C@H](NC(=O)[C@@H]1CCCN1C(=O)CNC(=O)[C@@H]1CC=CC[C@H](N)C(=O)N[C@@H](CCCNC(=N)N)C(=O)N[C@@H](CC(C)C)C(=O)N[C@@H](CO)C(=O)N1)C(=O)O` [Compound 31, NH2-c[X-R-L-S-X]c-G-P-Nle] (H-[AllylGly]RLS[AllylGly]GP[Nle]-OH; staple 1-5), the Ki was 0.6 nM.

Same assay, conditions: Ki binding

Compared with `CCCC[C@H](NC(=O)[C@@H]1CCCN1C(=O)CNC(=O)[C@H](CCCCN)NC(=O)[C@H](Cc1c[nH]cn1)NC(=O)[C@H](CO)NC(=O)[C@@H]1CC=CC[C@H](NC(=O)[C@@H]2CCC(=O)N2)C(=O)N2CCC[C@H]2C(=O)N[C@@H](CCCNC(=N)N)C(=O)N1)C(=O)N1CCC[C@H]1C(=O)N[C@@H](Cc1ccccc1)C(=O)O` [Compound 3, Pyr-c[X-P-R-X]c-S-H-K-G-P-Nle-P-F] ([pGlu][AllylGly]PR[AllylGly]SHKGP[Nle]PF-OH; staple 2-5), `CCCC[C@H](NC(=O)[C@@H]1CCCN1C(=O)CNC(=O)[C@H](CCCCN)NC(=O)[C@H](Cc1c[nH]cn1)NC(=O)[C@H](CO)NC(=O)[C@@H]1CC=CC[C@H](NC(=O)[C@@H]2CCC(=O)N2)C(=O)N2CCC[C@H]2C(=O)N[C@@H](C)C(=O)N1)C(=O)N1CCC[C@H]1C(=O)N[C@@H](Cc1ccccc1)C(=O)O` [Compound 5, Pyr-c[X-P-A-X]c-S-H-K-G-P-Nle-P-F] ([pGlu][AllylGly]PA[AllylGly]SHKGP[Nle]PF-OH; staple 2-5) is higher in Ki: 1250 ± 284 nM for the first, over 10000 nM for the second. The first binds more tightly here.

Compared with `CCCC[C@H](NC(=O)[C@@H]1CCCN1C(=O)CNC(=O)[C@H](CCCCN)NC(=O)[C@@H]1CC=CC[C@H](NC(=O)[C@@H]2CCC(=O)N2)C(=O)N2CCC[C@H]2C(=O)N[C@@H](CCCNC(=N)N)C(=O)N[C@@H](CC(C)C)C(=O)N[C@@H](CO)C(=O)N1)C(=O)N1CCC[C@H]1C(=O)N[C@@H](Cc1ccccc1)C(=O)O` [Compound 4, Pyr-c[X-P-R-L-S-X]c-K-G-P-Nle-P-F] ([pGlu][AllylGly]PRLS[AllylGly]KGP[Nle]PF-OH; staple 2-7), `CCCC[C@H](NC(=O)[C@@H]1CCCN1C(=O)CNC(=O)[C@H](CCCCN)NC(=O)[C@H](Cc1c[nH]cn1)NC(=O)[C@@H]1CC=CC[C@H](NC(=O)[C@@H]2CCC(=O)N2)C(=O)N2CCC[C@H]2C(=O)N[C@@H](C)C(=O)N[C@@H](CC(C)C)C(=O)N1)C(=O)N1CCC[C@H]1C(=O)N[C@@H](Cc1ccccc1)C(=O)O` [Compound 6, Pyr-c[X-P-A-L-X]c-H-K-G-P-Nle-P-F] is higher in Ki: 148 ± 21 nM for the first, over 10000 nM for the second. The first binds more tightly here.

`CCCC[C@H](NC(=O)[C@@H]1CCCN1C(=O)CNC(=O)[C@@H]1CC=CC[C@H](N)C(=O)N[C@@H](CCCNC(=N)N)C(=O)N[C@@H](CC(C)C)C(=O)N[C@@H](CO)C(=O)N1)C(=O)O` [Compound 31, NH2-c[X-R-L-S-X]c-G-P-Nle] (H-[AllylGly]RLS[AllylGly]GP[Nle]-OH; staple 1-5) showed a Ki of over 10000 nM.
